The values below come from patent US10227357B2, “Compounds and methods for kinase modulation, and indications therefor” (Plexxikon Inc., priority 2012, dated 2019).

In general, IC50 refers to the concentration that inhibits the measured activity by half.

Read-outs that look alike come from different tables or passages of the source.

In one assay the target is T1, c-kit kinase (Homo sapiens, UniProt P10721).
T1 construct: The c-kit (or kinase domain thereof) is an active kinase in AlphaScreen; poly-Histidine tag (in-house protein only) (cleaved yes); host or cells: E. coli BL21(DE3)RIL, co-expressed with PTP1B
Description: c-Kit biochemical assay, AlphaScreen, 10 μM ATP. An outline of the steps: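 His-tagged c-Kit expressed in E. coli with co-expressed PTP1B (dephosphorylated), tag removed; 0.1 ng per reaction with biotinylated-peptide substrate in 50 mM HEPES pH 7.2, 5 mM MgCl2, 5 mM MnCl2, 5% DMSO, 10 μM ATP, 1 h at room temperature. Phosphorylation detected by AlphaScreen (streptavidin donor, PY20 acceptor beads); IC50 from 8-point 1:3 dilution series.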
(In Alpha technology, singlet oxygen from a donor bead excites a nearby acceptor bead.)

The next assay has as its target T2, c-kit mutant D816V (Homo sapiens, UniProt P10721, D816V/DEL694-753).
T2 construct: residues 551-934, kinase insertion domain residues 694-753 deleted; 6x-histidine (N); made in house; host or cells: E. coli Arctic Express (DE3) RIL (Stratagene)
Description: c-Kit mutant D816V biochemical assay, AlphaScreen. In short, it runs like this: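 Eight-point, threefold compound series incubated 30 min at room temperature with E. coli-produced D816V kinase, 10 μM ATP, Mg2+/Mn2+ HEPES buffer pH 7.2 and 5% DMSO. After EDTA stop, streptavidin and anti-phosphotyrosine (PY20) AlphaScreen beads gave the read-out, and IC50 was fitted from the concentration–signal curve.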

The mark [1] stands for this setting: c-kit biochemical inhibitory activity, read-out: Biochemical activity (IC50 μM) Kit.
Where [2] appears, read: c-kit D816V biochemical inhibitory activity, read-out: Biochemical activity (IC50 μM) Kit D816V.

T1 sequence (P10721 26-976): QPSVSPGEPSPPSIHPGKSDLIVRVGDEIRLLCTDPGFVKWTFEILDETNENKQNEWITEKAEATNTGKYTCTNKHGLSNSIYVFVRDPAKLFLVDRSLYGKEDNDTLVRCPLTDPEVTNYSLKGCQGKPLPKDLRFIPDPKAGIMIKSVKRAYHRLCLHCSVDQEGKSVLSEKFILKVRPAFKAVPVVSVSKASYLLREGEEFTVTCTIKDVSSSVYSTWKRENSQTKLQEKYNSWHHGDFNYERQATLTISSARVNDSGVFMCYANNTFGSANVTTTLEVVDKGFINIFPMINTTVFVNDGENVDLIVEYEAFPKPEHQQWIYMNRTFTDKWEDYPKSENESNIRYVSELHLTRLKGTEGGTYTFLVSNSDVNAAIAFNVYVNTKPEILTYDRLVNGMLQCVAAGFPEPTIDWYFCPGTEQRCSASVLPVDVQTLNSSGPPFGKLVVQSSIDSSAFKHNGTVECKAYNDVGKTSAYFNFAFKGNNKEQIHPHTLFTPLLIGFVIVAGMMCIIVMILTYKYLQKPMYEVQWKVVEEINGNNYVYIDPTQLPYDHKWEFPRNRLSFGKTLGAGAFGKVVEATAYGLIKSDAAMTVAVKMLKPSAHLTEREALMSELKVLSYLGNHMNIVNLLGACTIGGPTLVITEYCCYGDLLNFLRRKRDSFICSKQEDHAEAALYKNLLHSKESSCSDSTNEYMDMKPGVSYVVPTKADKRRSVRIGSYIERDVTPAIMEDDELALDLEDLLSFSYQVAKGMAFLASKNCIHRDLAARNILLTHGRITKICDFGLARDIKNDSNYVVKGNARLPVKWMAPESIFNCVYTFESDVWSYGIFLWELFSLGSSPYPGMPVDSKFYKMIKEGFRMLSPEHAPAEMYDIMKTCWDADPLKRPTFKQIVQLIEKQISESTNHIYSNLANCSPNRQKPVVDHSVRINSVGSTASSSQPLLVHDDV
T2 sequence (P10721 with tags, fused parts or gaps DEL694-753/D816V): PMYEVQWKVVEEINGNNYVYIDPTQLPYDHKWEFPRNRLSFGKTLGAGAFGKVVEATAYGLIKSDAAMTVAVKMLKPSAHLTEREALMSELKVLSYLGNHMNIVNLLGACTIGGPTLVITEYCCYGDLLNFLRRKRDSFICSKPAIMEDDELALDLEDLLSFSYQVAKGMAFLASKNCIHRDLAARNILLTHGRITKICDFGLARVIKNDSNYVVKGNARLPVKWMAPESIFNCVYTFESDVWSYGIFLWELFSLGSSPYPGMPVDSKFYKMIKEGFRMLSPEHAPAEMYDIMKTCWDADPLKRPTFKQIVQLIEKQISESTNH

Turning to `CS(=O)(=O)Nc1ccc(-c2ncnc3cc4c(cc23)OCCO4)c(F)c1` [P-0266, N-[4-(7,8-dihydro-[1,4]dioxino[2,3-g]quinazolin-4-yl)-3-fluoro-phenyl]methanesulfonamide], the IC50 on c-kit kinase (setting [1]) and on c-kit mutant D816V (setting [2]) was 1 to 10 µM throughout.
For the compound `COc1cc2ncnc(-c3ccc(N)cc3F)c2cc1OC` [P-0267, 4-(6,7-dimethoxyquinazolin-4-yl)-3-fluoro-aniline], the IC50 on c-kit kinase (setting [1]) lay within 10 to 200 µM; at c-kit mutant D816V (setting [2]) it was 0.0001 to 1 µM.
On the same counts, the results for `COc1cc2ncnc(-c3ccc(NS(=O)(=O)c4ccc(Cl)cc4)cc3F)c2cc1OC` [P-0268, 4-chloro-N-[4-(6,7-dimethoxyquinazolin-4-yl)-3-fluoro-phenyl]benzenesulfonamide] are 1 to 10 µM and 0.0001 to 1 µM.
Taken in the same sequence, the figures for `CCCS(=O)(=O)Nc1ccc(-c2ncnc3cc(OC)c(OC)cc23)c(F)c1` [P-0269, N-[4-(6,7-dimethoxyquinazolin-4-yl)-3-fluoro-phenyl]propane-1-sulfonamide] were 10 to 200 µM and 0.0001 to 1 µM.
Take `COc1cc2ncnc(-c3ccc(NS(=O)(=O)C4CC4)cc3F)c2cc1OC` [P-0270, N-[4-(6,7-dimethoxyquinazolin-4-yl)-3-fluoro-phenyl]cyclopropanesulfonamide]: the values for the IC50 at c-kit kinase (setting [1]) and at c-kit mutant D816V (setting [2]) were 10 to 200 µM and 0.0001 to 1 µM, respectively.
For `COc1cc2ncnc(-c3ccc(NS(C)(=O)=O)cc3F)c2cc1OC` [P-0271, N-[4-(6,7-dimethoxyquinazolin-4-yl)-3-fluoro-phenyl]methanesulfonamide], the IC50 on c-kit kinase (setting [1]) was 1 to 10 µM; at c-kit mutant D816V (setting [2]), 0.0001 to 1 µM.
Regarding `Cc1ccc(-c2cc3c(C4=CCC(NS(=O)(=O)c5ccc(OC(F)(F)F)cc5)CC4)ncnc3[nH]2)cn1` (stereo not drawn) [P-0281, N-[4-[6-(6-methyl-3-pyridyl)-7H-pyrrolo[2,3-d]pyrimidin-4-yl]cyclohex-3-en-1-yl]-4-(trifluoromethoxy)benzenesulfonamide], the IC50 on c-kit kinase (setting [1]) was 10 to 200 µM; on c-kit mutant D816V (setting [2]) it was 0.0001 to 1 µM.
As for `CCCc1ccc(S(=O)(=O)Nc2ccc(-c3ncnc4[nH]c(C)cc34)cc2)cc1` [P-0282, N-[4-(6-methyl-7H-pyrrolo[2,3-d]pyrimidin-4-yl)phenyl]-4-propyl-benzenesulfonamide], the values for the 50% inhibitory concentration (IC50) on c-kit kinase (setting [1]) and on c-kit mutant D816V (setting [2]) were 1 to 10 µM and 0.0001 to 1 µM, respectively.
Turning to `Cc1cccc(S(=O)(=O)Nc2ccc(-c3ncnc4[nH]c(C)cc34)cc2)c1` [P-0283, 3-methyl-N-[4-(6-methyl-7H-pyrrolo[2,3-d]pyrimidin-4-yl)phenyl]benzenesulfonamide], the figures for the concentration for half-maximal inhibition (IC50) at c-kit kinase (setting [1]) and at c-kit mutant D816V (setting [2]) were 10 to 200 µM and 1 to 10 µM, respectively.
On the same counts, the results for `Cc1cc2c(-c3ccc(NS(=O)(=O)c4cccc(OC(F)(F)F)c4)cc3)ncnc2[nH]1` [P-0284, N-[4-(6-methyl-7H-pyrrolo[2,3-d]pyrimidin-4-yl)phenyl]-3-(trifluoromethoxy)benzenesulfonamide] are 10 to 200 µM and 1 to 10 µM.
As for `Cn1cc(-c2cc3c(C4=CCC(NS(=O)(=O)c5ccc(OC(F)(F)F)cc5)CC4)ncnc3[nH]2)cn1` (stereo not drawn) [P-0285, N-[4-[6-(1-methylpyrazol-4-yl)-7H-pyrrolo[2,3-d]pyrimidin-4-yl]cyclohex-3-en-1-yl]-4-(trifluoromethoxy)benzenesulfonamide], the IC50 at c-kit kinase (setting [1]) lay within 1 to 10 µM; on c-kit mutant D816V (setting [2]), 0.0001 to 1 µM.
Taken in the same sequence, the figures for `Cc1ccc(S(=O)(=O)Nc2ccc(-c3ncnc4[nH]c(C)cc34)c(F)c2)cn1` [P-0286, N-[3-fluoro-4-(6-methyl-7H-pyrrolo[2,3-d]pyrimidin-4-yl)phenyl]-6-methyl-pyridine-3-sulfonamide] were 1 to 10 µM and 0.0001 to 1 µM.
On the same counts, the results for `CCCCc1ccc(S(=O)(=O)Nc2ccc(-c3ncnc4[nH]c(C)cc34)cc2)cc1` [P-0287, 4-butyl-N-[4-(6-methyl-7H-pyrrolo[2,3-d]pyrimidin-4-yl)phenyl]benzenesulfonamide] are 10 to 200 µM and 1 to 10 µM.
As to `CCCCS(=O)(=O)Nc1ccc(-c2ncnc3[nH]c(C)cc23)cc1` [P-0288, N-[4-(6-methyl-7H-pyrrolo[2,3-d]pyrimidin-4-yl)phenyl]butane-1-sulfonamide], the figures for the IC50 against c-kit kinase and against c-kit mutant D816V (Biochemical activity (IC50 μM) Kit D816V) were 10 to 200 µM and 1 to 10 µM, respectively.
Take `CCCS(=O)(=O)Nc1ccc(-c2ncnc3[nH]c(C)cc23)cc1` [P-0289, N-[4-(6-methyl-7H-pyrrolo[2,3-d]pyrimidin-4-yl)phenyl]propane-1-sulfonamide]: the results for the IC50 at c-kit kinase (setting [1]) and on c-kit mutant D816V (setting [2]) were 10 to 200 µM and 0.0001 to 1 µM, respectively.
On the same counts, the results for `O=S(=O)(Nc1ccc(-c2ncnc3[nH]c(C4CCCC4)cc23)cc1)c1ccc(F)cc1` [P-0290, N-[4-(6-cyclopentyl-7H-pyrrolo[2,3-d]pyrimidin-4-yl)phenyl]-4-fluoro-benzenesulfonamide] are 1 to 10 µM and 0.0001 to 1 µM.
Taken in the same sequence, the figures for `Cc1cc2c(-c3ccc(NS(=O)(=O)c4ccc(C)s4)cc3F)ncnc2[nH]1` [P-0291, N-[3-fluoro-4-(6-methyl-7H-pyrrolo[2,3-d]pyrimidin-4-yl)phenyl]-5-methyl-thiophene-2-sulfonamide] were 1 to 10 µM and 0.0001 to 1 µM.
On the same counts, the results for `CCc1ccc(S(=O)(=O)Nc2ccc(-c3ncnc4[nH]c(C)cc34)c(F)c2)cc1` [P-0292, 4-ethyl-N-[3-fluoro-4-(6-methyl-7H-pyrrolo[2,3-d]pyrimidin-4-yl)phenyl]benzenesulfonamide] are 1 to 10 µM and 0.0001 to 1 µM.
Turning to `Cc1ccc(S(=O)(=O)Nc2ccc(-c3ncnc4[nH]c(C)cc34)c(F)c2)cc1` [P-0293, N-[3-fluoro-4-(6-methyl-7H-pyrrolo[2,3-d]pyrimidin-4-yl)phenyl]-4-methyl-benzenesulfonamide], the IC50 at c-kit kinase (setting [1]) is 1 to 10 µM; at c-kit mutant D816V (setting [2]), 0.0001 to 1 µM.
For `Cc1cc2c(-c3ccc(NS(=O)(=O)c4ccc5c(c4)OCO5)cc3)ncnc2[nH]1` [P-0294, N-[4-(6-methyl-7H-pyrrolo[2,3-d]pyrimidin-4-yl)phenyl]-1,3-benzodioxole-5-sulfonamide], the figures for the IC50 at c-kit kinase (setting [1]) and at c-kit mutant D816V (setting [2]) were 10 to 200 µM and 0.0001 to 1 µM, respectively.
For the compound `CC1(C)C=C(c2cc3c(-c4ccc(NS(=O)(=O)c5ccc(F)cc5)cc4)ncnc3[nH]2)CC(C)(C)N1` [P-0295, 4-fluoro-N-[4-[6-(2,2,6,6-tetramethyl-1,3-dihydropyridin-4-yl)-7H-pyrrolo[2,3-d]pyrimidin-4-yl]phenyl]benzenesulfonamide], the IC50 at c-kit kinase (setting [1]) is 1 to 10 µM; at c-kit mutant D816V (setting [2]), 0.0001 to 1 µM.
On to `O=S(=O)(Nc1ccc(-c2ncnc3[nH]c(C4=CCCC4)cc23)cc1)c1ccc(F)cc1` [P-0296, N-[4-[6-(cyclopenten-1-yl)-7H-pyrrolo[2,3-d]pyrimidin-4-yl]phenyl]-4-fluoro-benzenesulfonamide], for which the values for the IC50 on c-kit kinase (setting [1]) and on c-kit mutant D816V (setting [2]) were 1 to 10 µM and 0.0001 to 1 µM, respectively.
On the same counts, the results for `Cc1cc2c(-c3ccc(NS(=O)(=O)c4ccc(C(F)(F)F)nc4)cc3)ncnc2[nH]1` [P-0297, N-[4-(6-methyl-7H-pyrrolo[2,3-d]pyrimidin-4-yl)phenyl]-6-(trifluoromethyl)pyridine-3-sulfonamide] are 10 to 200 µM and 1 to 10 µM.
On the same counts, the results for `CC1(C)C=C(c2cc3c(-c4ccc(NS(=O)(=O)c5ccc(F)cc5)cc4)ncnc3[nH]2)CC(C)(C)O1` [P-0298, 4-fluoro-N-[4-[6-(2,2,6,6-tetramethyl-3H-pyran-4-yl)-7H-pyrrolo[2,3-d]pyrimidin-4-yl]phenyl]benzenesulfonamide] are 10 to 200 µM and 1 to 10 µM.
On the same counts, the results for `Cc1cc2c(-c3ccc(NS(=O)(=O)c4cc(Cl)c(Cl)s4)cc3)ncnc2[nH]1` [P-0299, 4,5-dichloro-N-[4-(6-methyl-7H-pyrrolo[2,3-d]pyrimidin-4-yl)phenyl]thiophene-2-sulfonamide] are 1 to 10 µM and 1 to 10 µM.
Regarding `Cc1cc2c(-c3ccc(NS(=O)(=O)c4sc(C)nc4C)cc3)ncnc2[nH]1` [P-0300, 2,4-dimethyl-N-[4-(6-methyl-7H-pyrrolo[2,3-d]pyrimidin-4-yl)phenyl]thiazole-5-sulfonamide], the IC50 on c-kit kinase (setting [1]) is 10 to 200 µM; at c-kit mutant D816V (setting [2]) it was 1 to 10 µM.
Taken in the same sequence, the figures for `Cc1ccc(S(=O)(=O)Nc2ccc(-c3ncnc4[nH]c(C)cc34)cc2)cn1` [P-0301, 6-methyl-N-[4-(6-methyl-7H-pyrrolo[2,3-d]pyrimidin-4-yl)phenyl]pyridine-3-sulfonamide] were 1 to 10 µM and 0.0001 to 1 µM.
On the same counts, the results for `Cc1cc2c(-c3ccc(NS(=O)(=O)c4ccc5c(c4)CCC5)cc3)ncnc2[nH]1` [P-0302, N-[4-(6-methyl-7H-pyrrolo[2,3-d]pyrimidin-4-yl)phenyl]indane-5-sulfonamide] are 10 to 200 µM and 0.0001 to 1 µM.
Taken in the same sequence, the figures for `Cc1cc2c(-c3ccc(NS(=O)(=O)c4ccc5oncc5c4)cc3)ncnc2[nH]1` [P-0303, N-[4-(6-methyl-7H-pyrrolo[2,3-d]pyrimidin-4-yl)phenyl]-1,2-benzoxazole-5-sulfonamide] were 10 to 200 µM and 10 to 200 µM.
For the compound `Cc1cc2c(-c3ccc(NS(=O)(=O)c4cc(Cl)cs4)cc3)ncnc2[nH]1` [P-0304, 4-chloro-N-[4-(6-methyl-7H-pyrrolo[2,3-d]pyrimidin-4-yl)phenyl]thiophene-2-sulfonamide], the IC50 fell in the range of 0.0001 to 1 µM at c-kit kinase (setting [1]) and 1 to 10 µM on c-kit mutant D816V (setting [2]).
